Source: paper PMC5350466 (mBio, 2017)
Values after ≈ are worked out from the molar mass of the structure shown.

Key:
B. cenocepacia K56-2 = test: MIC by broth microdilution, parental strain; format: cell-based, Burkholderia cenocepacia; settings: broth microdilution in cation-adjusted MHB at 18 to 24 h; for MIC: Burkholderia cenocepacia, K562
BcnA [1] = target: T1, BcnA (Burkholderia cenocepacia, UniProt B4EE32); test: In vitro binding assay: Nile red displacement from BcnA; settings: against 1.5 µM Nile red binding to 1.5 µM BcnA in PBS; read-out: binding inhibition constant (Ki)
T1 sequence (B4EE32 27-186): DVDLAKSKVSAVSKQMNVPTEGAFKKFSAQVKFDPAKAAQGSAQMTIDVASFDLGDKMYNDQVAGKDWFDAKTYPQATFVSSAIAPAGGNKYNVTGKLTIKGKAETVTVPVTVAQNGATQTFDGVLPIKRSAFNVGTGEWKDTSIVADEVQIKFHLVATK
Description: In vitro binding assays were performed as previously described ([23]), with a few modifications. Purified BCNs were prepared in phosphate-buffered saline (PBS, pH 7.4). Phospholipids and Nile red were prepared in DMSO. […] All spectra were corrected for background fluorescence determined from probe-into-buffer titrations. Fluorescence was measured with a Cary Eclipse fluorescence spectrophotometer (Varian) set at an excitation wavelength (λex) specific for each probe, as follows: Nile red, 550 nm; BODIPY phospholipids, 500 nm for fatty acyl BODIPY-labeled phosphocholine and 505 nm for head group BODIPY-labeled phosphoethanolamine. The emission spectrum for each probe was collected across the following wavelengths (λem): Nile red, 590 to 750 nm; BODIPY phospholipids, 510 to 665 nm. The background-corrected binding fluorescence with each probe was fitted to a one-site binding model as previously described for human AGP ([23]). The equilibrium binding affinity constant for the probe-BCN complex (Kd), the probe concentration needed to achieve half-maximum binding at equilibrium, was determined by nonlinear least-squares regression analysis of the binding isotherms with GraphPad Prism v 5.0 software (GraphPad Software, Inc.).
For probe displacement experiments, antibiotic solutions and fat-soluble vitamins (prepared in DMSO) diluted in PBS, pH 7.4, were titrated against a BCN-probe complex at a saturating concentration necessary to obtain the maximum fluorescence when bound. Probe displacement was measured as the corresponding decrease in fluorescence upon the progressive increase in the antibiotic concentration. The binding inhibition constants (Kis) of the test compounds were determined by nonlinear regression analysis with competition-binding equations for one-site binding calculated by GraphPad Prism v 5.0 software. The lower the Ki values, the higher the affinity of the molecule for BcnA. All fluorometric assays were conducted in duplicate three independent times.

ΔbcnA pSCRhaB2 = test: MIC by E test; format: cell-based, Burkholderia cenocepacia; settings: 24 h
bcnA::luxCDABE = test: Luciferase expression assay, bcnA::luxCDABE; format: cell-based, Burkholderia cenocepacia; settings: antibiotic at concentrations near the MIC (sublethal), 3 h
BcnA [2] = target: T1, BcnA; test: Antibiotic bioassay of sequestration by BcnA; format: binding; settings: 1.5 µM BcnA, 30 min at 37°C, 10-kDa cutoff filtration
Description: Antibiotic test solutions with or without 1.5 µM BcnA were incubated for 30 min at 37°C with rotation. The solutions were filtered through filter units with a 10-kDa cutoff by centrifugation at 7,500 × g, at 4°C for 10 min. The antibiotic concentrations in the filtrates were determined by spotting 5 µl onto sterile filter discs placed on agar plates swabbed with the test bacteria. Petri dishes (15-cm diameter) containing 40 ml of LB agar were swabbed with bacterial suspensions with an OD600 of 0.04. The plates were incubated at 37°C for 24 h. Each plate included four discs containing standard concentrations of the antibiotic alongside the discs impregnated with test and control antibiotic solutions. E. coli DH5α was used for bioassays of PmB, norfloxacin, ceftazidime, and gentamicin, and S. aureus USA300 was used for bioassays of rifampin. The theoretical disc contents of the test antibiotic solutions were 10, 5, 2, 30, and 10 µg for PmB, rifampin, norfloxacin, ceftazidime, and gentamicin, respectively. Standard antibiotic discs contained a 2-fold higher concentration than, the same concentration as, or a 2- or 4-fold lower concentration than the test antibiotic discs. After incubation, the clear zones of inhibition were measured and the antibiotic concentrations were determined from standard curves constructed from the standard antibiotic discs.

bcnB::luxCDABE = test: Luciferase expression assay, bcnB::luxCDABE; format: cell-based, Burkholderia cenocepacia; settings: antibiotic at concentrations near the MIC (sublethal), 3 h
K56-2 pSCRhaB2 = test: MIC by E test; format: cell-based; settings: Burkholderia cenocepacia, 24 h, read-out: MIC by Etest, K56-2 pSCRhaB2
ΔbcnA pbcnA (Sa) = test: MIC by E test; format: cell-based, Burkholderia cenocepacia; settings: 24 h
[3] = test system: B. cenocepacia ΔbcnA mutant; test: MIC by broth microdilution, ΔbcnA mutant; format: cell-based, Burkholderia cenocepacia
[4] = test system: B. cenocepacia ΔbcnB mutant; test: MIC by broth microdilution, ΔbcnB mutant; format: cell-based, Burkholderia cenocepacia; settings: broth microdilution in cation-adjusted MHB at 18 to 24 h

Row | Molecule | MIC (B. cenocepacia K56-2) [µg/mL] | Ki (BcnA [1]) [µM] | expression of bcnA::luxCDABE upon exposure to antibiotic (bcnA::luxCDABE) | antibiotic sequestration by BcnA (BcnA [2]) | other results
1 | CC[C@H]1OC(=O)[C@H](C)[C@@H](O[C@H]2C[C@@](C)(OC)[C@@H](O)[C@H](C)O2)[C@H](C)[C@@H](O[C@@H]2O[C@H](C)C[C@H](N(C)C)[C@H]2O)[C@](C)(O)C[C@@H](C)CN(C)[C@H](C)[C@@H](O)[C@]1(C)O [Azithromycin, azithromycin] | 64 (≈ 85.4 µM) | – | – | – | –
2 | CC(C)(O/N=C(\C(=O)N[C@@H]1C(=O)N2C(C(=O)[O-])=C(C[n+]3ccccc3)CS[C@H]12)c1csc(N)n1)C(=O)O [Ceftazidime, ceftazidime] | 32 (≈ 58.5 µM) | 16900 | upregulated | sequestered | MIC by Etest, ΔbcnA pSCRhaB2 (ΔbcnA pSCRhaB2): 2 μg/ml; expression of bcnB::luxCDABE upon exposure to antibiotic (bcnB::luxCDABE): increased; MIC (K56-2 pSCRhaB2): 8 µg/mL (≈ 14.6 µM); MIC by Etest, ΔbcnA pbcnA (Sa) (ΔbcnA pbcnA (Sa)): 8 µg/mL (≈ 14.6 µM)
3 | O=C(O)c1cn(C2CC2)c2cc(N3CCNCC3)c(F)cc2c1=O [Cipro, ciprofloxacin] | – | – | – | – | MIC by Etest, ΔbcnA pSCRhaB2 (ΔbcnA pSCRhaB2): 2 μg/ml; MIC (K56-2 pSCRhaB2): 4 µg/mL (≈ 12.1 µM); MIC by Etest, ΔbcnA pbcnA (Sa) (ΔbcnA pbcnA (Sa)): 4 µg/mL (≈ 12.1 µM)
4 | CNC(C)C1CCC(N)C(OC2C(N)CC(N)C(OC3OCC(C)(O)C(NC)C3O)C2O)O1 (centres unmarked) [Gentamicin, gentamicin] | 2050 (≈ 4290 µM) | – | remained unchanged | not | –
5 | C[C@@H](O)[C@H]1C(=O)N2C(C(=O)O)=C(S[C@@H]3CN[C@H](C(=O)N(C)C)C3)[C@H](C)[C@H]12 [Meropenem, meropenem] | 1 (≈ 2.61 µM) | – | – | – | –
6 | CN(C)c1ccc(O)c2c1C[C@H]1C[C@H]3[C@H](N(C)C)C(O)=C(C(N)=O)C(=O)[C@@]3(O)C(O)=C1C2=O [Minocycline, minocycline] | 2 (≈ 4.37 µM) | – | – | – | –
7 | CCn1cc(C(=O)O)c(=O)c2cc(F)c(N3CCNCC3)cc21 [Norfloxacin, norfloxacin] | 128 (≈ 401 µM) | 400 | upregulated | sequestered | expression of bcnB::luxCDABE upon exposure to antibiotic (bcnB::luxCDABE): increased
8 | CO[C@H]1/C=C/O[C@@]2(C)Oc3c(C)c(O)c4c(O)c(c(/C=N/N5CCN(C)CC5)c(O)c4c3C2=O)NC(=O)/C(C)=C\C=C\[C@H](C)[C@H](O)[C@@H](C)[C@@H](O)[C@@H](C)[C@H](OC(C)=O)[C@@H]1C [Rifampicin, rifampin] | 256 (≈ 311 µM) | 16.5 | upregulated | sequestered | MIC by Etest, ΔbcnA pSCRhaB2 (ΔbcnA pSCRhaB2): 16 μg/ml; MIC (K56-2 pSCRhaB2): ≥ 64 µg/mL; MIC by Etest, ΔbcnA pbcnA (Sa) (ΔbcnA pbcnA (Sa)): ≥ 64 µg/mL
9 | COc1cc(Cc2cnc(N)nc2N)cc(OC)c1OC [Trimethoprim, trimethoprim] | 8 (≈ 27.6 µM) | – | – | – | –
10 | Cc1c(C)c2c(c(C)c1O)CC[C@@](C)(CCC[C@H](C)CCC[C@H](C)CCCC(C)C)O2 [Vit E, α-tocopherol] | – | 0.417 | – | – | –
11 | menaquinone [Vit K2] | – | 0.569 | – | – | –
12 | polymyxin B [PmB] | – | – | upregulated | sequestered | MIC K56-2 (B. cenocepacia K56-2): ≥ 4096 µg/mL; MIC ΔbcnA ([3]; broth microdilution in cation-adjusted MHB at 18 to 24 h): 2048 µg/mL; MIC reduction in the ΔbcnA mutant ([3]; ΔbcnA mutant relative to parental strain): 4 fold; MIC ΔbcnB [4]: ≥ 4096 µg/mL
